Experimental findings from ChEMBL document CHEMBL4229479, “Synthesis and evaluation of panaxatriol derivatives as Na+, K+-ATPase inhibitors” (Bioorg Med Chem Lett, 2018) are described below.

The target in data set [1] is Sodium/potassium-transporting ATPase. Briefly: Inhibition of human Na+/K+-ATPase assessed as reduction in inorganic phosphate release from ATP incubated for 15 mins followed by ATP addition measured over 15 mins in presence of Na+/K+ by colorimetric method. The class given is protein-complex assay.
The nature of data set [2]: Arrhythmogenic activity in Langendorff-perfused heart rat model at 0.26 umol/L administered for 30 mins following 60 mins perfusion with K-H solution. It counts as toxicity, tissue-based. The settings on record: 0.5 h, 0.26 µM.

Structures are written as SMILES. pIC50: −log10 of the molar value.

In the case of `CC1(C)CCC[C@](C)([C@H]2CC[C@]3(C)[C@@H]2C(=O)C[C@@H]2[C@@]4(C)CCC(=O)C(C)(C)[C@@H]4[C@@H](O)C[C@]23C)O1`, the pIC50 in data set [1] is 6.15. For `COC(=O)CC[C@@]1(C)CC(=O)C[C@]2(C)[C@@H]1C[C@@H](O)[C@@H]1[C@@H]([C@@]3(C)CCCC(C)(C)O3)CC[C@]12C`, in data set [1], the pIC50 is 6.39. Consider `CC1(C)CCC[C@](C)([C@H]2CC[C@]3(C)[C@@H]2C(=O)C[C@@H]2[C@@]4(C)CCC(=O)OC(C)(C)[C@@H]4[C@@H](O)C[C@]23C)O1`, for which the pIC50 in data set [1] is 5.91. On to `COC(=O)CC[C@]1(C)[C@H]2C[C@@H](O)[C@@H]3[C@@H]([C@@]4(C)CCCC(C)(C)O4)CC[C@@]3(C)[C@]2(C)CC(=O)[C@H]1C(C)(C)O`, for which, in data set [1], the pIC50 is 6.59. Moreover, the Activity in data set [2] is given as 0%.

For `CC1(C)CCC[C@](C)([C@H]2CC[C@]3(C)[C@@H]2C(=O)C[C@@H]2[C@@]4(C)CCC(=O)OC(C)(C)[C@@H]4C(=O)C[C@]23C)O1`, in data set [1], the pIC50 is 5.95. Take `CC1(C)CCC[C@](C)([C@H]2CC[C@]3(C)[C@@H]2[C@H](O)C[C@@H]2[C@@]4(C)CC[C@H](OCc5ccccc5)C(C)(C)[C@@H]4C(=O)C[C@]23C)O1`: the negative-log IC50 (pIC50) in data set [1] is 6.52. For `C=CCO[C@H]1C[C@]2(C)[C@H](C[C@@H](O)[C@@H]3[C@@H]([C@@]4(C)CCCC(C)(C)O4)CC[C@]32C)[C@@]2(C)CCC(=O)C(C)(C)[C@H]12`, in data set [1], the pIC50 is 6.04. On to `CCOC(=O)NC(=S)O[C@H]1CC[C@]2(C)[C@H]3C[C@@H](O)[C@@H]4[C@@H]([C@@]5(C)CCCC(C)(C)O5)CC[C@@]4(C)[C@]3(C)CC(=O)[C@H]2C1(C)C`, for which the pIC50 in data set [1] is 5.86.

As for `CC1(C)CCC[C@](C)([C@H]2CC[C@]3(C)[C@@H]2[C@H](O)C[C@@H]2[C@@]4(C)CCC(=O)OC(C)(C)[C@@H]4C(=O)C[C@]23C)O1`, the pIC50 in data set [1] is 5.93. As for `CC1(C)CCC[C@](C)([C@H]2CC[C@]3(C)[C@@H]2[C@H](O)C[C@@H]2[C@@]4(C)CC[C@H](O)C(C)(C)[C@@H]4C(=O)C[C@]23C)O1`, the pIC50 in data set [1] is 5.93. Turning to `C=C(C)[C@@H]1C(=O)C[C@]2(C)[C@H](C[C@@H](O)[C@@H]3[C@@H]([C@@]4(C)CCCC(C)(C)O4)CC[C@]32C)[C@@]1(C)CCC(=O)OC`, the pIC50 in data set [1] was 5.96. Consider `CC1(C)CCC[C@](C)([C@H]2CC[C@]3(C)[C@@H]2[C@H](O)C[C@@H]2[C@@]4(C)Cc5c([nH]c6ccccc56)C(C)(C)[C@@H]4C(=O)C[C@]23C)O1`, for which the pIC50 in data set [1] is 6.11. As to `C=CCO[C@H]1C[C@]2(C)[C@H](C[C@@H](OCC=C)[C@@H]3[C@@H]([C@@]4(C)CCCC(C)(C)O4)CC[C@]32C)[C@@]2(C)CCC(=O)C(C)(C)[C@H]12`, in data set [1], the pIC50 was 6.12. On the same count and under the same terms, the value for `CC1(C)CCC[C@](C)([C@H]2CC[C@]3(C)[C@@H]2[C@H](O)C[C@@H]2[C@@]4(C)Cc5c([nH]c6ccc(F)cc56)C(C)(C)[C@@H]4C(=O)C[C@]23C)O1` was 6.04; that for `CC1(C)CCC[C@](C)([C@H]2CC[C@]3(C)[C@@H]2[C@H](O)C[C@@H]2[C@@]4(C)CCC(=O)NC(C)(C)[C@@H]4C(=O)C[C@]23C)O1` was 6.39; that for `CCO[C@H]1CC[C@]2(C)[C@H]3C[C@@H](O)[C@@H]4[C@@H]([C@@]5(C)CCCC(C)(C)O5)CC[C@@]4(C)[C@]3(C)CC(=O)[C@H]2C1(C)C` was 5.94. Still for that read-out and setting: the value for `CC1(C)CCC[C@](C)([C@H]2CC[C@]3(C)[C@@H]2[C@H](O)C[C@@H]2[C@@]4(C)CCC(=O)C(C)(C)[C@@H]4[C@@H](O)C[C@]23C)O1` was 5.94; that for `CC1(C)CCC[C@](C)([C@H]2CC[C@]3(C)[C@@H]2[C@H](OCc2ccccc2)C[C@@H]2[C@@]4(C)CCC(=O)C(C)(C)[C@@H]4[C@@H](OCc4ccccc4)C[C@]23C)O1` was 6.06. The same measure, in the same setting: the value for `CC1(C)CCC[C@](C)([C@H]2CC[C@]3(C)[C@@H]2[C@H](O)C[C@@H]2[C@@](C)(CCC(=O)O)CC(=O)C[C@]23C)O1` was 6.27; that for `CC1(C)CCC[C@](C)([C@H]2CC[C@]3(C)[C@@H]2[C@H](O)C[C@@H]2[C@@]4(C)Cc5c([nH]c6ccc(OC(F)(F)F)cc56)C(C)(C)[C@@H]4C(=O)C[C@]23C)O1` was 6.44; that for `CC1(C)CCC[C@](C)([C@H]2CC[C@]3(C)[C@@H]2[C@H](O)C[C@@H]2[C@@]4(C)CCC(=O)C(C)(C)[C@@H]4[C@@H](OCc4ccccc4)C[C@]23C)O1` was 6.48. For the compound `CC1(C)CCC[C@](C)([C@H]2CC[C@]3(C)[C@@H]2[C@H](O)C[C@@H]2[C@@]4(C)CC[C@H](OCc5ccc(OC(F)(F)F)cc5)C(C)(C)[C@@H]4C(=O)C[C@]23C)O1`, the pIC50 in data set [1] was 6.35. On the same count and under the same terms, the value for `C=CCO[C@H]1CC[C@]2(C)[C@H]3C[C@@H](O)[C@@H]4[C@@H]([C@@]5(C)CCCC(C)(C)O5)CC[C@@]4(C)[C@]3(C)CC(=O)[C@H]2C1(C)C` was 5.98; that for `CC1(C)CCC[C@](C)([C@H]2CC[C@]3(C)[C@@H]2[C@H](O)C[C@@H]2[C@@]4(C)CC[C@H](Oc5noc(=O)[nH]5)C(C)(C)[C@@H]4C(=O)C[C@]23C)O1` was 6.02.

Regarding `CC1(C)CCC[C@](C)([C@H]2CC[C@]3(C)[C@@H]2C(=O)C[C@@H]2[C@@]4(C)CCC(=O)C(C)(C)[C@@H]4C(=O)C[C@]23C)O1`, in data set [1], the negative-log IC50 (pIC50) is 6.12. Same read-out and setting: the value for `CC1(C)CCC[C@](C)([C@H]2CC[C@]3(C)[C@@H]2[C@H](O)C[C@@H]2[C@@]4(C)CCC(=O)C(C)(C)[C@@H]4C(=O)C[C@]23C)O1` was 6.09. `C[C@H]1O[C@@H](O[C@H]2[C@@H](O)C[C@H](O[C@H]3[C@@H](O)C[C@H](O[C@H]4CC[C@@]5(C)[C@H](CC[C@@H]6[C@@H]5C[C@@H](O)[C@]5(C)[C@@H](C7=CC(=O)OC7)CC[C@]65O)C4)O[C@@H]3C)O[C@@H]2C)C[C@H](O)[C@@H]1O` [DIGOXIN] yielded an Activity in data set [2] of 50%. As to `CC1(C)CCC[C@](C)([C@H]2CC[C@]3(C)[C@@H]2[C@H](O)C[C@@H]2[C@@]4(C)CC[C@H](O)C(C)(C)[C@@H]4[C@@H](O)C[C@]23C)O1` [PANAXATRIOL], the pIC50 in data set [1] is 5.96.
